Where two headings read alike, the source gives them in different places.
Columns and labels:
[1] = biological target: T1, HEK-EBNA cells expressing a PG EP2 receptor subtype (Homo sapiens, UniProt P43116); assay: cAMP assay, EP2; assay type: cell-based
T1 construct: expressed in transfected cells; host or cells: HEK-EBNA
Method: A 384-well drug plate was prepared to contain 6 test compounds, PGE2 and cAMP in 16 serial dilutions in triplicate, using a Biomek station. HEK-EBNA cells expressing a target PG receptor subtype (EP2 or EP4) were suspended in a stimulation buffer (HBSS, 0.1% BSA, 0.5 mM IBMX and 5 mM HEPES, pH 7.4) in a density of 10^4 cells/5 μl. The reaction was initiated by mixing 5 μL drug dilutions with 5 μl of HEK-EBNA cells in a well, carried out for 30 min at room temperature, and followed by the addition of 5 μl anti-cAMP acceptor beads in the control buffer with Tween-20 (25 mM NaCl, 0.03% Tween-20, 5 mM HEPES, pH7.4). After 30 min in the dark at room temperature, the mixtures were incubated with 15 μl biotinylated-cAMP/strepavidin donor beads in Lysis/Detection buffer (0.1% BSA, 0.3% Tween-20 and 5 mM HEPES, pH7.4) for 45 min at the room temperature. Fluorescence changes were read using a Fusion-alpha HT microplate reader.

[2] = biological target: T2, EP4 receptors (Homo sapiens, UniProt P35408); assay: Radioligand binding ([3H]PGE2), EP4
T2 construct: expressed in transfected cells; host or cells: HEK-293
T2 sequence (P35408 whole entry): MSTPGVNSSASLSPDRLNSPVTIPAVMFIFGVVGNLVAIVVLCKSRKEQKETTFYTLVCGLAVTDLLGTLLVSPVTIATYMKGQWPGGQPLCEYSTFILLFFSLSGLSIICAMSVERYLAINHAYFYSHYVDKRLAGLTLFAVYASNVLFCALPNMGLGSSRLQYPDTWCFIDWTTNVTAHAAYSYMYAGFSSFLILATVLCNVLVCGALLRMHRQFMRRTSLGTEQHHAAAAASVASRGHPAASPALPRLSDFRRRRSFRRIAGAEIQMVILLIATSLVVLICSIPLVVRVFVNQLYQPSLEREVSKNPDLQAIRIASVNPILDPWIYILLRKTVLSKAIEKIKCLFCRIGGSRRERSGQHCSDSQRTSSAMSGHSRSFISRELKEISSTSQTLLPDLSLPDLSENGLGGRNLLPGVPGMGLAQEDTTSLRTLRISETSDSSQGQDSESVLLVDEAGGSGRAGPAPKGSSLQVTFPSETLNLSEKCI
Summary of the method: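 Membranes from HEK-293 cells stably expressing the human receptor, resuspended at 1 mg/ml protein in TME buffer pH 7.4. Competition against 5 nM [3H]PGE2 for 60 min at 25 °C, ended by filtration on GF/B filters; non-specific binding defined with 10^−5 M unlabeled PGE2.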

[3] = biological target: T3, hEP4/Gqs5 (Homo sapiens, UniProt P35408); assay: FLIPR calcium signal, hEP4; assay type: cell-based; settings: for EC50: unit inferred, read-out: EP4 data flipr EC50
T3 construct: expressed in transfected cells; host or cells: HEK-293(EBNA)
T3 sequence (P35408 whole entry): as above
Summary of the method: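 HEK-293(EBNA) cells stably expressing each human prostanoid receptor (EP2 and EP3A coupled via Gqs5/Gqi5 chimeras) were loaded with Fluo-4 AM, and peak calcium fluorescence was measured on FLIPR at 37° C. Compounds were tested at 10^−5 M or from 10^−11 to 10^−5 M in duplicate, n≥3, with response expressed relative to buffer and standard agonist controls.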

[4] = biological target: T4, hDP/Gqs5 (Homo sapiens, UniProt Q13258); assay: FLIPR calcium signal, hDP; assay type: cell-based; settings: read-out: Other Receptors EC50 hDP
T4 construct: expressed in transfected cells; host or cells: HEK-293(EBNA)
T4 sequence (Q13258 1-359): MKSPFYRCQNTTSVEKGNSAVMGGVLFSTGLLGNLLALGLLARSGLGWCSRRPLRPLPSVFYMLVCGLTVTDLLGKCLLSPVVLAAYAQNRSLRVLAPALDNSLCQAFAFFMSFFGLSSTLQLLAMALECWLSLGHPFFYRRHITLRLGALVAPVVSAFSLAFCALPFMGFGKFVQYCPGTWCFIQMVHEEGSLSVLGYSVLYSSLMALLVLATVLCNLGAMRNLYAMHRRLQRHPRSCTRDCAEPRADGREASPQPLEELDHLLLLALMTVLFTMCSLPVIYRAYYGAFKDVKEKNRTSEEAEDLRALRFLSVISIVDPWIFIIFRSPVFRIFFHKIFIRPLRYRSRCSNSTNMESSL
Method: HEK-293(EBNA) cells, stably expressing one type or subtype of recombinant human prostaglandin receptors (prostaglandin receptors expressed: hDP/Gqs5; hEP1; hEP2/Gqs5; hEP3A/Gqi5; hEP4/Gqs5; hFP; hIP; hTP), were cultured in 100 mm culture dishes in high-glucose DMEM medium containing 10% fetal bovine serum, 2 mM 1-glutamine, 250 μg/ml geneticin (G418) and 200 μg/ml hygromycin B as selection markers, and 100 units/ml penicillin G, 100 μg/ml streptomycin and 0.25 μg/ml amphotericin B. • (b) Calcium Signal Studies on the FLIPR™
Cells were seeded at a density of 5×10^4 cells per well in Biocoat® Poly-D-lysine-coated black-wall, clear-bottom 96-well plates (Becton-Dickinson) and allowed to attach overnight in an incubator at 37° C. Cells were then washed two times with HBSS-HEPES buffer (Hanks Balanced Salt Solution without bicarbonate and phenol red, 20 mM HEPES, pH 7.4) using a Denley Cellwash plate washer (Labsystems). After 45 minutes of dye-loading in the dark, using the calcium-sensitive dye Fluo-4 AM at a final concentration of 2 μM, plates were washed four times with HBSS-HEPES buffer to remove excess dye leaving 100 μl in each well. Plates were re-equilibrated to 37° C. for a few minutes.
Cells were excited with an Argon laser at 488 nm, and emission was measured through a 510-570 nm bandwidth emission filter (FLIPR™, Molecular Devices, Sunnyvale, Calif.). Drug solution was added in a 50 μl volume to each well to give the desired final concentration. The peak increase in fluorescence intensity was recorded for each well. On each plate, four wells each served as negative (HBSS-HEPES buffer) and positive controls (standard agonists: BW245C (hDP); PGE2 (hEP1; hEP2/Gqs5; hEP3A/Gqi5; hEP4/Gqs5); PGF2α (hFP); carbacyclin (hIP); U-46619 (hTP), depending on receptor). The peak fluorescence change in each drug-containing well was then expressed relative to the controls.
Compounds were tested in a high-throughput (HTS) or concentration-response (CoRe) format. In the HTS format, forty-four compounds per plate were examined in duplicates at a concentration of 10^−5 M. To generate concentration-response curves, four compounds per plate were tested in duplicates in a concentration range between 10^−5 and 10^−11 M. The duplicate values were averaged. In either, HTS or CoRe format each compound was tested on at least 3 separate plates using cells from different passages to give an n≧3.

[5] = unit inferred, read-out: EP2 data cAMP EC50
[6] = unit inferred, read-out: EP4 data KI

T1 sequence (P43116 whole entry): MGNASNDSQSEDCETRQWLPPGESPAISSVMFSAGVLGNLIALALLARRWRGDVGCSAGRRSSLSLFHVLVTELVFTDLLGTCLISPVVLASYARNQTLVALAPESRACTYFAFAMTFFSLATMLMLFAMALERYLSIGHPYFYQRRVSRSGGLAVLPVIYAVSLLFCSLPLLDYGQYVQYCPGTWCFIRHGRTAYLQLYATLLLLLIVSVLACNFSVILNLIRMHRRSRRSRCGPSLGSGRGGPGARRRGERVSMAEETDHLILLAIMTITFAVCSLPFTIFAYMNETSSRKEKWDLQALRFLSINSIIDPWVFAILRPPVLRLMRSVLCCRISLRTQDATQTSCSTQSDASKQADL

Structure (SMILES) | EC50 ([1]; Table 3, third part, value in parentheses, read-out: EP2 EC50 in a cAMP mediated assay) [nM] | Ki ([2]; Table 3, third part, read-out: BINDING-Ki (nM) EP4) [nM] | Ca2+ Signal-EC50 (nM) EP4 ([3]; Table 3, third part) | EC50 [1, 5] [nM] | EC50 [4] [nM] | Ki [2, 6] [nM] | EC50 [3] [µM]
CCCCCC(C)c1ccc([C@@H]2[C@@H](C/C=C\CCCC(=O)O)[C@H](C#N)C[C@H]2C)cc1 (stereo partly shown) | 4 | > 10000 | not active | – | – | – | –
CCCCCC(=O)c1ccc(N2C(=O)CC[C@@H]2CCCc2ccc(C(=O)O)s2)cc1 | – | – | – | 1.6 | 7700 | > 10000 | > 10
CC(C)(C)c1ccc(N2C(=O)CC[C@@H]2COCc2ccc(C(=O)O)o2)cc1 | – | – | – | 28 | 1920 | > 10000 | > 10
CC(C)(C)c1ccc(N2C(=O)CC[C@@H]2COCc2ccc(C(=O)O)s2)cc1 | – | – | – | 51 | 2320 | > 10000 | > 10
CC(C)(C)c1ccc(N2C(=O)CC[C@@H]2CCCCCCC(=O)O)cc1 | – | – | – | 548 | > 10000 | > 10000 | > 10
CCCCCC(O)c1ccc(N2C(=O)CC[C@@H]2COCc2ccc(C(=O)O)s2)cc1 (single isomer, unassigned) [drawing 148] | – | – | – | 5 | 7750 | > 10000 | > 10
CCCCCC(O)c1ccc(N2C(=O)CC[C@@H]2CCCc2ccc(C(=O)O)s2)cc1 (single isomer, unassigned) [drawing 151] | – | – | – | 0.15 | 296 | – | > 10
CCCCCCC(O)c1ccc(N2C(=O)CC[C@@H]2COCc2ccc(C(=O)O)s2)cc1 (single isomer, unassigned) [drawing 152] | – | – | – | 7 | 6830 | – | –
CCCCCCC(O)c1ccc(N2C(=O)CC[C@@H]2CCCc2ccc(C(=O)O)s2)cc1 (single isomer, unassigned) [drawing 155] | – | – | – | 1.4 | 37 | – | –
CCCCCCC(O)c1ccc(N2C(=O)CC[C@@H]2CCCc2ccc(C(=O)O)s2)cc1 (single isomer, unassigned) [drawing 156] | – | – | – | 0.6 | 106 | – | –
CCCCCC(O)c1ccc(N2C(=O)CC[C@@H]2COCc2ccc(C(=O)O)s2)cc1 (single isomer, unassigned) [drawing 176] | – | – | – | 5 | 7750 | > 10000 | > 10
CCCCCC(O)c1ccc(N2C(=O)CC[C@@H]2COCc2ccc(C(=O)O)s2)cc1 (single isomer, unassigned) [drawing 177] | – | – | – | 1.5 | 6800 | 6030 | > 10
CCCCCC(O)c1ccc(N2C(=O)CC[C@@H]2CCCc2ccc(C(=O)O)s2)cc1 (single isomer, unassigned) [drawing 178] | – | – | – | 0.19 | 812 | > 10000 | > 10
CCCCCC(O)c1ccc(N2C(=O)CC[C@@H]2CCCc2ccc(C(=O)O)s2)cc1 (single isomer, unassigned) [drawing 179] | – | – | – | 0.15 | 296 | 4850 | > 10
CCCCCC(O)c1ccc(N2C(=O)CC[C@@H]2CCCc2ccc(C(=O)O)s2)cc1 (single isomer, unassigned) [drawing 180] | – | – | – | 7 | 6830 | 3840 | –
CCCCCCC(O)c1ccc(N2C(=O)CC[C@@H]2CCCc2ccc(C(=O)O)s2)cc1 (single isomer, unassigned) [drawing 183] | – | – | – | 1.4 | 37 | – | –
CCCCCCC(O)c1ccc(N2C(=O)CC[C@@H]2CCCc2ccc(C(=O)O)s2)cc1 (single isomer, unassigned) [drawing 184] | – | – | – | 0.6 | 106 | – | –
CCCCCC(O)c1ccc(N2C(=O)CC[C@@H]2CCCc2ccc(C(=O)O)s2)cc1 (stereo partly shown) [drawing 145] | – | – | – | 0.55 | 1230 | > 10000 | –
CCCCCC(O)c1ccc(N2C(=O)CC[C@@H]2CCCc2ccc(C(=O)O)s2)cc1 (stereo partly shown) [drawing 173] | – | – | – | 0.55 | 1230 | > 10000 | –

Reference: US7799821B2, “Therapeutic compounds” (Allergan, Inc., priority 2004, dated 2010)
